# Source: patent US7109380B2, “Cyclopentenedione antifungal compounds and methods for their use” (The University of Mississippi, priority 2004, dated 2006)
# Legend:
# C. albicans ATCC 90028 = test: In vitro antimicrobial assay (modified NCCLS), Candida media pH 4.5; format: cell-based, Candida albicans; details: Candida albicans
# Botrytis cinerea = test: 96-well microtiter fungal growth assay; format: cell-based;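 for Mean percent fungal growth inhibition of Botrytis cinerea: percent relative to untreated positive growth controls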
# From the text: (§1) Pathogen collection. Isolates of Colletotrichum acutatum Simmonds, Colletotrichum fragariae Brooks, and Colletotrichum gloeosporioides (Penz.) Penz. & Sacc. in Penz. were obtained from B. J. Smith, USDA, ARS, Small Fruit Research Station, Poplarville, Mass. Colletotrichum fragariae (isolate CF63), C. acutatum (isolate CAGoff), and C. gloeosporioides (isolate CG162) were used for all pathogen and bioautography studies. Isolate CF63 is one of the most virulent isolates at infecting strawberry plants and inducing both crown and fruit rot (Smith and Black, 1990). CF63, CAGoff, and CG162 were used as standard test isolates because of our extensive knowledge of these isolates and their known fungicide sensitivity profiles in both bioautography and microtiter formats. The three Colletotrichum species were isolated from strawberry (Fragaria xananassa Duchesne). Botrytis cinerea Pers.:Fr, was isolated from commercial grape (Vitis vinifera L.) and Fusarium oxysporum Schlechtend:Fr from orchid (Cynoches sp.) by David E. Wedge, USDA ARS Natural Products Utilization Research Unit. Phomopsis viticola (Sacc.) and P. obscurans (Ellis & Everh.) Sutton were from Mike A. Ellis, Ohio State University, Wooster, Ohio. Fungi were grown on potato-dextrose agar (PDA, Difco, Detroit Mich.) in 9 cm petri dishes and incubated in a growth chamber at 24±2° C. and under cool-white fluorescent lights ([…]·m^−2·sec^−1 light) with 12-h photoperiod.
# (§2) Inoculum preparation. Conidia were harvested from 7–10 day-old cultures by flooding plates with 5 mL of sterile distilled water and dislodging conidia by softly brushing the colonies with an L-shaped glass rod. Conidial suspensions were filtered through sterile miracloth (Calbiochem-Novabiochem Corp., La Jolla Calif.) to remove mycelia. Conidia concentrations were determined photometrically, from a standard curve based on the absorbance at 625 nm and suspensions were then adjusted with sterile distilled water to a concentration of 1.0×10^6 conidia/mL.
# (§3) Microtiter assay. A standardized 96-well microtiter plate assay developed for discovery of natural product fungicidal agents. A 96-well microtiter assay was used to determine sensitivity of B. cinerea, C. acutatum, C. fragariae, C. gloeosporioides, F. oxysporum, Phomopsis viticola, and P. obscurans to the various antifungal agents in comparison with known fungicidal standards. Vinclozolin, captan, and thiabendazole, which represent three different modes of action, were used as standards in this experiment. Each fungus was challenged in a dose-response format using test compounds where the final treatment concentrations were 0.3, 3.0 and 30.0 μM. Microtiter plates (Nunc MicroWell, untreated; Roskilde, Denmark) were covered with a plastic lid and incubated in a growth chamber at 24±1 C and 12 h photoperiod under 60±5 μmol light. Growth was then evaluated by measuring absorbance of each well at 620 nm using a microplate photometer (Packard Spectra Count, Packard Instrument Co., Downers Grove, Ill.).
# (§4) Microbioassay Experimental Design. Chemical sensitivity of each fungus 96-well microtiter assay is used to determine sensitivity of B. cinerea, C. acutatum, C. fragariae, C. gloeosporioides, F. oxysporum, Phomopsis viticola, and P. obscurans. Each chemical is evaluated in duplicate at each dose (0.3, 3.0 and 30.0 μM) and repeated twice in time. Sixteen wells containing broth and inoculum serves as positive controls, eight wells containing solvent at the appropriate concentration and broth without inoculum are used as negative controls. Mean absorbance values and standard errors is used to evaluate fungal growth at 48 hrs and 72 hrs except for P. obscurans and P. viticola the data are recorded at 120 hrs. […] Treatments are arranged as a split-plot design replicated twice in time. Whole-plots were fungal isolates and sub-plots are chemicals. Each dose level and response time is analyzed separately. […]
# Colletotrichum acutatum = test: 96-well microtiter fungal growth assay; format: cell-based;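 for Mean percent fungal growth inhibition of Colletotrichum acutatum: percent relative to untreated positive growth controls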
# From the text: as §1, §2, §3, §4
# Colletotrichum fragariae = test: 96-well microtiter fungal growth assay; format: cell-based;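 for Mean percent fungal growth inhibition of Colletotrichum fragariae: percent relative to untreated positive growth controls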
# From the text: as §1, §2, §3, §4
# [1] = test system: Colletotrichum gloeosporioides; test: 96-well microtiter fungal growth assay; format: cell-based;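 for Mean percent fungal growth inhibition of Colletotrichum gloeosporoides: percent relative to untreated positive growth controls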
# From the text: as §1, §2, §3, §4
# Fusarium oxysporum = test: 96-well microtiter fungal growth assay; format: cell-based;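 for Mean percent fungal growth inhibition of Fusarium oxysporum: percent relative to untreated positive growth controls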
# From the text: as §1, §2, §3, §4
smiles,measurement,setting,value
"COC(/C=C/c1ccccc1)=C1\C(=O)C=C(C)C1=O [Compound 1, coruscanone A]",IC50,"C. albicans ATCC 90028; ATCC90028, pH 4.5, read-out: IC50 (50% inhibitory concentration)",0.2 µg/mL
same,MFC,"C. albicans ATCC 90028; ATCC90028, C. albicans ATCC 90028, pH 4.5, Table 3, read-out: MFC",0.63 µg/mL
same,MIC,"C. albicans ATCC 90028; ATCC90028, C. albicans ATCC 90028, pH 4.5, Table 3, read-out: MIC",0.31 µg/mL
same,Mean percent fungal growth inhibition of Botrytis cinerea,"Botrytis cinerea; 0.3 μm, 48 hrs",−7.3 ± 12.8%
same,Mean percent fungal growth inhibition of Botrytis cinerea,"Botrytis cinerea; 0.3 μm, 72 hrs",28.1 ± 8.3%
same,Mean percent fungal growth inhibition of Botrytis cinerea,"Botrytis cinerea; 3.0 μm, 48 hrs",−45.2 ± 16.4%
same,Mean percent fungal growth inhibition of Botrytis cinerea,"Botrytis cinerea; 3.0 μm, 72 hrs",−15.7 ± 10.6%
same,Mean percent fungal growth inhibition of Botrytis cinerea,"Botrytis cinerea; 30 μm, 48 hrs",−69.6 ± 9.8%
same,Mean percent fungal growth inhibition of Botrytis cinerea,"Botrytis cinerea; 30 μm, 72 hrs",−88.4 ± 5.6%
same,IC50,"Botrytis cinerea; Botrytis cinerea, 48 h, read-out: IC50 (growth inhibition)",< 1.55 µM
same,Mean percent fungal growth inhibition of Colletotrichum acutatum,"Colletotrichum acutatum; 0.3 μm, 48 hrs",49.7 ± 6.6%
same,Mean percent fungal growth inhibition of Colletotrichum acutatum,"Colletotrichum acutatum; 0.3 μm, 72 hrs",38.0 ± 3.0%
same,Mean percent fungal growth inhibition of Colletotrichum acutatum,"Colletotrichum acutatum; 3.0 μm, 48 hrs",−73.1 ± 4.9%
same,Mean percent fungal growth inhibition of Colletotrichum acutatum,"Colletotrichum acutatum; 3.0 μm, 72 hrs",−21.8 ± 4.4%
same,Mean percent fungal growth inhibition of Colletotrichum acutatum,"Colletotrichum acutatum; 30 μm, 48 hrs",−95.8 ± 1.9%
same,Mean percent fungal growth inhibition of Colletotrichum acutatum,"Colletotrichum acutatum; 30 μm, 72 hrs",−97.6 ± 0.8%
same,IC50,"Colletotrichum acutatum; Colletotrichum acutatum, C. acutatum, 96-well microbioassay, read-out: IC50 (growth inhibition)",< 3.1 µM
same,Mean percent fungal growth inhibition of Colletotrichum fragariae,"Colletotrichum fragariae; 0.3 μm, 48 hrs",−14.1 ± 10.8%
same,Mean percent fungal growth inhibition of Colletotrichum fragariae,"Colletotrichum fragariae; 0.3 μm, 72 hrs",−4.8 ± 5.0%
same,Mean percent fungal growth inhibition of Colletotrichum fragariae,"Colletotrichum fragariae; 3.0 μm, 48 hrs",−94.0 ± 1.9%
same,Mean percent fungal growth inhibition of Colletotrichum fragariae,"Colletotrichum fragariae; 3.0 μm, 72 hrs",−54.6 ± 18.7%
same,Mean percent fungal growth inhibition of Colletotrichum fragariae,"Colletotrichum fragariae; 30 μm, 48 hrs",−96.9 ± 1.9%
same,Mean percent fungal growth inhibition of Colletotrichum fragariae,"Colletotrichum fragariae; 30 μm, 72 hrs",−67.4 ± 18.3%
same,IC50,"Colletotrichum fragariae; Colletotrichum fragariae, C. fragariae, 96-well microbioassay, read-out: IC50 (growth inhibition)",< 3.1 µM
same,Mean percent fungal growth inhibition of Colletotrichum gloeosporoides,"[1]; 0.3 μm, 48 hrs",37.7 ± 9.0%
same,Mean percent fungal growth inhibition of Colletotrichum gloeosporoides,"[1]; 0.3 μm, 72 hrs",46.7 ± 3.9%
same,Mean percent fungal growth inhibition of Colletotrichum gloeosporoides,"[1]; 3.0 μm, 48 hrs",−79.9 ± 2.8%
same,Mean percent fungal growth inhibition of Colletotrichum gloeosporoides,"[1]; 3.0 μm, 72 hrs",−13.8 ± 3.7%
same,Mean percent fungal growth inhibition of Colletotrichum gloeosporoides,"[1]; 30 μm, 48 hrs",−95.2 ± 2.2%
same,Mean percent fungal growth inhibition of Colletotrichum gloeosporoides,"[1]; 30 μm, 72 hrs",−94.4 ± 1.6%
same,IC50,"[1]; Colletotrichum gloeosporioides, C. gleoesporioides, 96-well microbioassay, read-out: IC50 (growth inhibition)",< 3.1 µM
same,Mean percent fungal growth inhibition of Fusarium oxysporum,"Fusarium oxysporum; 0.3 μm, 48 hrs",2.4 ± 4.7%
same,Mean percent fungal growth inhibition of Fusarium oxysporum,"Fusarium oxysporum; 0.3 μm, 72 hrs",12.2 ± 2.1%
same,Mean percent fungal growth inhibition of Fusarium oxysporum,"Fusarium oxysporum; 3.0 μm, 48 hrs",−76.9 ± 1.6%
same,Mean percent fungal growth inhibition of Fusarium oxysporum,"Fusarium oxysporum; 3.0 μm, 72 hrs",−24.2 ± 3.3%
same,Mean percent fungal growth inhibition of Fusarium oxysporum,"Fusarium oxysporum; 30 μm, 48 hrs",−99.3 ± 0.2%
same,Mean percent fungal growth inhibition of Fusarium oxysporum,"Fusarium oxysporum; 30 μm, 72 hrs",−98.9 ± 0.2%
same,IC50,"Fusarium oxysporum; Fusarium oxysporum, F. oxysporum, 96-well microbioassay, read-out: IC50 (growth inhibition)",< 12.5 µM
